The source of these data is patent US8563540B2, “Pyrido[3,2-d]pyrimidine PI3K delta inhibitor compounds and methods of use” (Genetech, Inc., priority 2010, dated 2013).

In assay [1] the test system is production of CD69 by B lymphocytes in human whole blood activated with anti-human IgM. Briefly: CD69 Whole Blood Assay. The format is cell-based. Conditions: Lymphocyte, anti-IgM stimulated, CD69 positive of CD20 positive cells, 20 hours. The method, then:
Human blood is obtained from healthy volunteers, with the following restrictions: 1 week drug-free, non-smokers.
Human whole blood—HWB (100 μl) is added to each well. After mixing the plates are incubated at 37° C., 5% CO2, 100% humidity for 30 minutes. Goat F(ab′)2 anti-human IgM (10 μl of a 500 μg/ml solution, 50 μg/ml final) is added to each well (except the no-stimulus wells) with mixing and the plates are incubated for an additional 20 hours. […] Include induced control, unstained and single stains for compensation adjustments and initial voltage settings. […] Results are initially analyzed by FACS analysis software (Flow Jo).

For a further assay, the target named is T1, p110 delta (Homo sapiens, UniProt O00329).
T1 construct: purchased Upstate Group, Millipore; Dundee, UK
Briefly: PI3K Isoform Inhibition Assay, p110 delta. The format is biochemical. The conditions noted are these: PI3K isoform inhibition assay of Example 901. The method, then: (§1) PI3K enzymatic activity was assayed by measuring the amount of product phosphatidylinositol […] (PIP3) formed from substrate 4,5 phosphatidylinositol 4,5-phosphate (PIP2) using a fluorescence polarization displacement assay. The decrease in fluorescence polarization of a fluorescent PIP3 probe is measured as it is displaced from a PIP3-binding protein GRP-1 detector by PI3K-catalyzed product. […] The kinase reactions were initiated by the addition of 40 ng/mL p110α/p85α, 300 ng/mL p110β/p85α, 40 ng/mL p110γ, or 40 ng/mL […] (Upstate Group, Millipore; Dundee, UK), and 10 μM PIP2 (Echelon Biosciences) to the wells. […] After 60 minutes of incubation at room temperature to allow equilibration of labeled and unlabeled PIP3 binding, the parallel and perpendicular components of the fluorescence emissions from each sample were measured at an excitation wavelength of 530 nm and an emission wavelength of 590 nm using an Envision fluorescent plate reader with a rhodamine filter (PerkinElmer Life and Analytical Sciences; Wellesley, Mass.). The assay is capable of detecting 0.1-2.0 μM PIP3 product. The IC50 values were obtained by fitting the dose-dependent inhibition data to a 4-parameter equation using Assay Explorer software (MDL, San Ramon, Calif.).
(§2) The Formula I compound was serially diluted in 100% DMSO. The kinase reaction was incubated for 1 h at room temperature, and the reaction was terminated by the addition of PBS. IC50 values were subsequently determined using sigmoidal dose-response curve fit (variable slope).
The four Class I PI 3-kinases are cloned into baculovirus vectors as follows: […]

Another assay deals with T2, p110 alpha (Homo sapiens, UniProt P42336).
T2 construct: purchased Upstate Group, Millipore; Dundee, UK
Briefly: PI3K Isoform Inhibition Assay, p110 alpha (delta/alpha selectivity). Conditions: ratio of biochemical IC50 values. The method, then: as §1, §2
The same protocol may be used to establish IC50 values for p110α (alpha) PI3K binding. […]

T2 sequence (P42336 whole entry): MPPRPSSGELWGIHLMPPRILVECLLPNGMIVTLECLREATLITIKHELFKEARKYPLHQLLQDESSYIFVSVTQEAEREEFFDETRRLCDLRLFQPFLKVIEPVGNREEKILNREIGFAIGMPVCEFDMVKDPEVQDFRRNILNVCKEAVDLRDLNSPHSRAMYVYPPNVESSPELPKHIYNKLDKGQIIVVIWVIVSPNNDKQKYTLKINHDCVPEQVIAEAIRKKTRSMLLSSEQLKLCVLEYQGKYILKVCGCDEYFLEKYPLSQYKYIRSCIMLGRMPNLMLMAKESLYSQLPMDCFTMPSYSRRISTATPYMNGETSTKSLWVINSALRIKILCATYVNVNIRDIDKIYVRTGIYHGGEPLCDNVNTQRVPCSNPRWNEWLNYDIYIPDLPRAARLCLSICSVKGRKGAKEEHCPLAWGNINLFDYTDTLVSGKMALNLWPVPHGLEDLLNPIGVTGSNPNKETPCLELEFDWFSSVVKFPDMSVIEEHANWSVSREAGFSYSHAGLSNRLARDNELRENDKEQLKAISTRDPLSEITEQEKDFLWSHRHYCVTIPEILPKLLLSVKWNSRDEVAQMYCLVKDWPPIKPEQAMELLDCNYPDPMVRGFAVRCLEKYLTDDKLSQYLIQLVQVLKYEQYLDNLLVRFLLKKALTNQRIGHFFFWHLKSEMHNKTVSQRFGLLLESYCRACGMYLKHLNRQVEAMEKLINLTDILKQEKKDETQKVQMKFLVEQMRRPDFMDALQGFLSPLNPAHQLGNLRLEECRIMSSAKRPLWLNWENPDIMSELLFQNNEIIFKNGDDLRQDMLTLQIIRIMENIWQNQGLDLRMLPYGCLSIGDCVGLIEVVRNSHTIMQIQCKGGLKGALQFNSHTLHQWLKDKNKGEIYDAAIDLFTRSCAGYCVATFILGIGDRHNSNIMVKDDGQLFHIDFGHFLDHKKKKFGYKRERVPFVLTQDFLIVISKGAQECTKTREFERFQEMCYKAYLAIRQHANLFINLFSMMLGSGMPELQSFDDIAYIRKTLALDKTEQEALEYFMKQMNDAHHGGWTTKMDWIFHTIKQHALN
T2 sequence (P27986 whole entry partner): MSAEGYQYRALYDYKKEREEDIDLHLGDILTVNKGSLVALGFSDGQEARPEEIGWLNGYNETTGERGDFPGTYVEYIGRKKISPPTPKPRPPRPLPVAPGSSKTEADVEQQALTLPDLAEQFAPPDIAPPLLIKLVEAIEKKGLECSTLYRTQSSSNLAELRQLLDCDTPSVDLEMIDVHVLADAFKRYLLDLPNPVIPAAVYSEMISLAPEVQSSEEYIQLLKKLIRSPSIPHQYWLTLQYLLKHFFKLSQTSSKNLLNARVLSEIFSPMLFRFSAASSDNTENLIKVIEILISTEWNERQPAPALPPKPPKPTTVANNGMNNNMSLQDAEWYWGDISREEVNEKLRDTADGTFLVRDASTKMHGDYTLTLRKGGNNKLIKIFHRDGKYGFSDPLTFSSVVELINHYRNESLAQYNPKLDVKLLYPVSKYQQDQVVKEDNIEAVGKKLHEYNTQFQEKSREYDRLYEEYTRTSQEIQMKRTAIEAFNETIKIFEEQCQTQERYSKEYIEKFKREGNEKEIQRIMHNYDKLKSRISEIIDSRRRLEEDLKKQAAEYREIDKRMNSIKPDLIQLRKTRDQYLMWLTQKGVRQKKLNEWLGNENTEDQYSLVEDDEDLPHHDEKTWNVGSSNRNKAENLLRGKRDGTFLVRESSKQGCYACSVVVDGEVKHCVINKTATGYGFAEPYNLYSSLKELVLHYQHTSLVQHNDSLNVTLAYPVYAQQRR
T1 sequence (O00329 whole entry): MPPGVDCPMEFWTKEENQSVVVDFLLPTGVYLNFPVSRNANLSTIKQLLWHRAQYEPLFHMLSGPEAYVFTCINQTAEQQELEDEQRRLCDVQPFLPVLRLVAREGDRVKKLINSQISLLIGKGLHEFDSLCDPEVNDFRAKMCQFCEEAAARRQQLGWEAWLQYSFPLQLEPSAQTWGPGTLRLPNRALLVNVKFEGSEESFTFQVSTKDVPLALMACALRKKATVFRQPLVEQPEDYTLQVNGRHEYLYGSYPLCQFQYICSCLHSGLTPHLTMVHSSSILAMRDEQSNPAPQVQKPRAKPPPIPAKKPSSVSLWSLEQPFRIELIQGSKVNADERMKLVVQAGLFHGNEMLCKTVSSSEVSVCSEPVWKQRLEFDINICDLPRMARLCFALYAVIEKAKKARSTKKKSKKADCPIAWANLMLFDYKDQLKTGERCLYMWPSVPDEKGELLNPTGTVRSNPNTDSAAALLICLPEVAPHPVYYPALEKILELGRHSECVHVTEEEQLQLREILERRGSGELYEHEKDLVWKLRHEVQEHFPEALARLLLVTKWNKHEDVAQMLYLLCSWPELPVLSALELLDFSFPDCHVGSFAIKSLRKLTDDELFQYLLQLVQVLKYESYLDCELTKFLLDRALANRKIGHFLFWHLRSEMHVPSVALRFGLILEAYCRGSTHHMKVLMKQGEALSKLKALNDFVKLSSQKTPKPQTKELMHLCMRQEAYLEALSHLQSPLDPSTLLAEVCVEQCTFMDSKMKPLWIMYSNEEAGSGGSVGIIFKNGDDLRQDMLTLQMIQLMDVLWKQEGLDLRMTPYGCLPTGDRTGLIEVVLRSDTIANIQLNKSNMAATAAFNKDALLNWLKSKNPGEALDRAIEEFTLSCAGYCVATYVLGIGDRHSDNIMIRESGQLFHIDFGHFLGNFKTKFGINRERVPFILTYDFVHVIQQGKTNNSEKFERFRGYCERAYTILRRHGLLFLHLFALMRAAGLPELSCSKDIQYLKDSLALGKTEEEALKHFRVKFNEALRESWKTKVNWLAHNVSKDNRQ
T1 sequence (P27986 whole entry partner): as the sequence (P27986 whole entry partner) above

As for `CC(C)c1nc2ccccc2n1-c1nc(N2CCOCC2)c2nc(CN3CCC(C(C)(C)O)CC3)ccc2n1` [Compound 112, 2-(1-((2-(2-isopropyl-1H-benzo[d]imidazol-1-yl)-4-morpholinopyrido[3,2-d]pyrimidin-6-yl)methyl)piperidin-4-yl)propan-2-ol], the half-inhibitory concentration (IC50) (as a rule, the concentration needed to halve the response being measured) in assay [1] came out at 83.8 nM; against p110 delta, 5.33 nM. At p110 alpha, the “IC50 p110 alpha/IC50 p110 delta” value is 44.
Consider `CO[C@@H](C)c1nc2ccccc2n1-c1nc(N2CCOCC2)c2nc(CN3CCC(C(C)(C)O)CC3)ccc2n1` [Compound 114, (S)-2-(1-((2-(2-(1-methoxyethyl)-1H-benzo[d]imidazol-1-yl)-4-morpholinopyrido[3,2-d]pyrimidin-6-yl)methyl)piperidin-4-yl)propan-2-ol], for which the half-inhibitory concentration (IC50) was found to be 12 nM in assay [1] and 1.78 nM against p110 delta. The “IC50 p110 alpha/IC50 p110 delta” value on p110 alpha is 53.
Consider `CC(C)(O)C1CCN(Cc2ccc3nc(-c4cccc5nccn45)nc(N4CCOCC4)c3n2)CC1` [Compound 161, 2-(1-((2-(imidazo[1,2-a]pyridin-5-yl)-4-morpholinopyrido[3,2-d]pyrimidin-6-yl)methyl)piperidin-4-yl)propan-2-ol], for which, at p110 delta, half-maximal inhibition (IC50) was put at 118 nM. Also, the “IC50 p110 alpha/IC50 p110 delta” value at p110 alpha was 17.8.
As to `CC(C)Oc1cnc2c(N3CCOCC3)nc(-c3cnc(N)nc3)nc2c1` [Compound 201, 5-(7-isopropoxy-4-morpholinopyrido[3,2-d]pyrimidin-2-yl)pyrimidin-2-amine], at p110 delta, the half-maximal inhibitory concentration (IC50) came to 4.91 nM. Further, the “IC50 p110 alpha/IC50 p110 delta” value on p110 alpha is reported as 0.34.
For `CCc1nc2ccccc2n1-c1nc(N2CCOCC2)c2nc(CN3CC(N4CCOCC4)C3)ccc2n1` [Compound 131, 4-(1-((2-(2-ethyl-1H-benzo[d]imidazol-1-yl)-4-morpholinopyrido[3,2-d]pyrimidin-6-yl)methyl)azetidin-3-yl)morpholine], in that order: 2.23 nM and 36.
`Cc1oc2ccccc2c1-c1nc(N2CCOCC2)c2nc(CN3CCC(C(C)(C)O)CC3)ccc2n1` [Compound 103, 2-(1-((2-(2-methylbenzofuran-3-yl)-4-morpholinopyrido[3,2-d]pyrimidin-6-yl)methyl)piperidin-4-yl)propan-2-ol]: the IC50 at p110 delta was 10.5 nM. Also, at p110 alpha, the “IC50 p110 alpha/IC50 p110 delta” value came out at 200.
